Results reported in PubChem BioAssay AID1963981 (Molecular Pharmacology Branch, DTP, NCI, 2024).

System: 354836-022-R-J1-PDC multicell spheroid viability
Test: Anticancer human tumor 354836-022-R-J1-PDC patient-derived head and neck squamous cell carcinoma cell line growth inhibition [PI3K]
Conditions: for IC50: curve of first compound; for viability, T/C: stronger effect = lower value
Method in brief: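 High-throughput combination screen: PI3K inhibitors crossed with targeted small molecules on complex spheroids of tumor cells, HUVEC and MSCs at 37 degrees C, 5% CO2. Top concentration was at or near clinical Cmax (otherwise 10 microM), with half-log decrements.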

[1] = second compound 0.00316 µM, first compound 0.0316 µM
[2] = second compound 0.00316 µM, first compound 0.1 µM
[3] = second compound 0.01 µM, first compound 0.0316 µM
[4] = second compound 0.01 µM, first compound 0.1 µM
[5] = second compound 0.0316 µM, first compound 0.0316 µM
[6] = second compound 0.0316 µM, first compound 0.1 µM
[7] = second compound 0.1 µM, first compound 0.0316 µM
[8] = second compound 0.1 µM, first compound 0.1 µM
[9] = second compound 0.316 µM, first compound 0.0316 µM
[10] = second compound 0.316 µM, first compound 0.1 µM
[11] = second compound 1 µM, first compound 0.0316 µM
[12] = second compound 1 µM, first compound 0.1 µM
[13] = second compound 0.00316 µM, first compound 0.316 µM
[14] = second compound 0.00316 µM, first compound 1 µM
[15] = second compound 0.00316 µM, first compound 3.16 µM
[16] = second compound 0.00316 µM, first compound 10 µM
[17] = second compound 0.01 µM, first compound 0.316 µM
[18] = second compound 0.01 µM, first compound 1 µM
[19] = second compound 0.01 µM, first compound 3.16 µM
[20] = second compound 0.01 µM, first compound 10 µM
[21] = second compound 0.0316 µM, first compound 0.316 µM
[22] = second compound 0.0316 µM, first compound 1 µM
[23] = second compound 0.0316 µM, first compound 3.16 µM
[24] = second compound 0.0316 µM, first compound 10 µM
[25] = second compound 0.1 µM, first compound 0.316 µM
[26] = second compound 0.1 µM, first compound 1 µM
[27] = second compound 0.1 µM, first compound 3.16 µM
[28] = second compound 0.1 µM, first compound 10 µM
[29] = second compound 0.316 µM, first compound 0.316 µM
[30] = second compound 0.316 µM, first compound 1 µM
[31] = second compound 0.316 µM, first compound 3.16 µM
[32] = second compound 0.316 µM, first compound 10 µM
[33] = second compound 1 µM, first compound 0.316 µM
[34] = second compound 1 µM, first compound 1 µM
[35] = second compound 1 µM, first compound 3.16 µM
[36] = second compound 1 µM, first compound 10 µM
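Note: spheroids exposed to agents for seven days before the viability read.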

For CC(=O)c1c(C)c2cnc(Nc3ccc(N4CCNCC4)cn3)nc2n(C2CCCC2)c1=O + COc1c(OCCCN2CCOCC2)ccc2c3n(c(=NC(=O)c4cnc(N)nc4)nc12)CCN3, the IC50 (second compound 0.00316 µM) was over 100 nM, the IC50 (second compound 0.01 µM) was over 100 nM and the IC50 (second compound 0.0316 µM) was over 100 nM. For the same compound, the IC50 (second compound 0.1 µM) was over 100 nM, the IC50 (second compound 0.316 µM) was under 0.316 nM and the IC50 (second compound 1 µM) was under 0.316 nM. It also gave a viability, T/C (second compound 0.00316 µM, first compound 0.000316 µM) of 115%, a viability, T/C (second compound 0.00316 µM, first compound 0.001 µM) of 116% and a viability, T/C (second compound 0.00316 µM, first compound 0.00316 µM) of 119%. It also gave a viability, T/C (second compound 0.00316 µM, first compound 0.01 µM) of 113%, a viability, T/C [1] of 99.9% and a viability, T/C [2] of 107%. It also gave a viability, T/C (second compound 0.01 µM, first compound 0.000316 µM) of 107%, a viability, T/C (second compound 0.01 µM, first compound 0.001 µM) of 121% and a viability, T/C (second compound 0.01 µM, first compound 0.00316 µM) of 93.7%. For the same compound, the viability, T/C (second compound 0.01 µM, first compound 0.01 µM) was 99.1%, the viability, T/C [3] was 85.1% and the viability, T/C [4] was 105%. The viability, T/C (second compound 0.0316 µM, first compound 0.000316 µM) was 78.7%, the viability, T/C (second compound 0.0316 µM, first compound 0.001 µM) was 92.1% and the viability, T/C (second compound 0.0316 µM, first compound 0.00316 µM) was 81.3%. The viability, T/C (second compound 0.0316 µM, first compound 0.01 µM) was 82.2%, the viability, T/C [5] was 95.9% and the viability, T/C [6] was 83.3%. The viability, T/C (second compound 0.1 µM, first compound 0.000316 µM) was 48.8%, the viability, T/C (second compound 0.1 µM, first compound 0.001 µM) was 54.3% and the viability, T/C (second compound 0.1 µM, first compound 0.00316 µM) was 57.6%. For the same compound, the viability, T/C (second compound 0.1 µM, first compound 0.01 µM) was 61.3%, the viability, T/C [7] was 55.7% and the viability, T/C [8] was 59.6%. The viability, T/C (second compound 0.316 µM, first compound 0.000316 µM) was 15.9%, the viability, T/C (second compound 0.316 µM, first compound 0.001 µM) was 16.5% and the viability, T/C (second compound 0.316 µM, first compound 0.00316 µM) was 12.5%. For the same compound, the viability, T/C (second compound 0.316 µM, first compound 0.01 µM) was 14.6%, the viability, T/C [9] was 15.2% and the viability, T/C [10] was 14.1%. For the same compound, the viability, T/C (second compound 1 µM, first compound 0.000316 µM) was 2.1%, the viability, T/C (second compound 1 µM, first compound 0.001 µM) was 1.43% and the viability, T/C (second compound 1 µM, first compound 0.00316 µM) was 1.73%. It also gave a viability, T/C (second compound 1 µM, first compound 0.01 µM) of 2.18%, a viability, T/C [11] of 2.06% and a viability, T/C [12] of 1.39%.

CCCS(=O)(=O)Nc1ccc(F)c(C(=O)c2c[nH]c3ncc(-c4ccc(Cl)cc4)cc23)c1F + COc1c(OCCCN2CCOCC2)ccc2c3n(c(=NC(=O)c4cnc(N)nc4)nc12)CCN3 showed an IC50 (second compound 0.00316 µM) of 5870 nM, an IC50 (second compound 0.01 µM) of 5890 nM and an IC50 (second compound 0.0316 µM) of 4280 nM. The IC50 (second compound 0.1 µM) was under 31.6 nM, the IC50 (second compound 0.316 µM) was under 31.6 nM and the IC50 (second compound 1 µM) was under 31.6 nM. For the same compound, the viability, T/C [1] was 99.6%, the viability, T/C [2] was 96% and the viability, T/C [13] was 97.8%. The viability, T/C [14] was 108%, the viability, T/C [15] was 86.4% and the viability, T/C [16] was 18.6%. It also gave a viability, T/C [3] of 85.1%, a viability, T/C [4] of 93.7% and a viability, T/C [17] of 93.7%. It also gave a viability, T/C [18] of 91.4%, a viability, T/C [19] of 86.4% and a viability, T/C [20] of 19.1%. It also gave a viability, T/C [5] of 72.8%, a viability, T/C [6] of 86.7% and a viability, T/C [21] of 86.3%. It also gave a viability, T/C [22] of 78.6%, a viability, T/C [23] of 64% and a viability, T/C [24] of 11.1%. For the same compound, the viability, T/C [7] was 48.2%, the viability, T/C [8] was 43.8% and the viability, T/C [25] was 47.1%. The viability, T/C [26] was 56.4%, the viability, T/C [27] was 40.7% and the viability, T/C [28] was 7.62%. It also gave a viability, T/C [9] of 12.5%, a viability, T/C [10] of 13.2% and a viability, T/C [29] of 12.3%. For the same compound, the viability, T/C [30] was 13.6%, the viability, T/C [31] was 12.4% and the viability, T/C [32] was 1.45%. It also gave a viability, T/C [11] of 1.35%, a viability, T/C [12] of 1.58% and a viability, T/C [33] of 2.26%. For the same compound, the viability, T/C [34] was 1.47%, the viability, T/C [35] was 1.69% and the viability, T/C [36] was 0.99%.

In the case of CNC(=O)c1ccc(N2C(=S)N(c3ccc(C#N)c(C(F)(F)F)c3)C(=O)C2(C)C)cc1F + COc1c(OCCCN2CCOCC2)ccc2c3n(c(=NC(=O)c4cnc(N)nc4)nc12)CCN3, the IC50 (second compound 0.00316 µM) is reported as over 10000 nM, the IC50 (second compound 0.01 µM) is reported as over 10000 nM and the IC50 (second compound 0.0316 µM) is reported as over 10000 nM. It also gave an IC50 (second compound 0.1 µM) of under 31.6 nM, an IC50 (second compound 0.316 µM) of under 31.6 nM and an IC50 (second compound 1 µM) of under 31.6 nM. The viability, T/C [1] was 93.6%, the viability, T/C [2] was 102% and the viability, T/C [13] was 101%. It also gave a viability, T/C [14] of 107%, a viability, T/C [15] of 124% and a viability, T/C [16] of 93.2%. The viability, T/C [3] was 97.3%, the viability, T/C [4] was 92.8% and the viability, T/C [17] was 92.7%. The viability, T/C [18] was 97.7%, the viability, T/C [19] was 102% and the viability, T/C [20] was 108%. The viability, T/C [5] was 78.1%, the viability, T/C [6] was 80% and the viability, T/C [21] was 81.8%. It also gave a viability, T/C [22] of 83.7%, a viability, T/C [23] of 80.4% and a viability, T/C [24] of 77%. For the same compound, the viability, T/C [7] was 47.8%, the viability, T/C [8] was 50.8% and the viability, T/C [25] was 57.1%. It also gave a viability, T/C [26] of 49.2%, a viability, T/C [27] of 58.4% and a viability, T/C [28] of 49.9%. It also gave a viability, T/C [9] of 16.4%, a viability, T/C [10] of 18.1% and a viability, T/C [29] of 13.4%. The viability, T/C [30] was 10.8%, the viability, T/C [31] was 14.5% and the viability, T/C [32] was 12.6%. It also gave a viability, T/C [11] of 1.3%, a viability, T/C [12] of 1.27% and a viability, T/C [33] of 1.65%. For the same compound, the viability, T/C [34] was 1.63%, the viability, T/C [35] was 1.96% and the viability, T/C [36] was 0.99%.
